According to ChEMBL document CHEMBL1145876, “New arylpiperazine derivatives with high affinity for alpha1A, D2 and 5-HT2A receptors” (Bioorg Med Chem Lett, 2003):

Key:
[1] = molecular target: 5-hydroxytryptamine receptor 2A (Rattus norvegicus, UniProt P14842); test: Binding affinity towards 5-hydroxytryptamine 2A receptor using [3H]ketanserin
D(2) dopamine receptor = D(2) dopamine receptor (Rattus norvegicus, UniProt P61169); test: Binding affinity towards Dopamine receptor D2 in rat […] using [3H]spiperone; type: tissue-based
Chain of D(2) dopamine receptor (P61169 whole entry): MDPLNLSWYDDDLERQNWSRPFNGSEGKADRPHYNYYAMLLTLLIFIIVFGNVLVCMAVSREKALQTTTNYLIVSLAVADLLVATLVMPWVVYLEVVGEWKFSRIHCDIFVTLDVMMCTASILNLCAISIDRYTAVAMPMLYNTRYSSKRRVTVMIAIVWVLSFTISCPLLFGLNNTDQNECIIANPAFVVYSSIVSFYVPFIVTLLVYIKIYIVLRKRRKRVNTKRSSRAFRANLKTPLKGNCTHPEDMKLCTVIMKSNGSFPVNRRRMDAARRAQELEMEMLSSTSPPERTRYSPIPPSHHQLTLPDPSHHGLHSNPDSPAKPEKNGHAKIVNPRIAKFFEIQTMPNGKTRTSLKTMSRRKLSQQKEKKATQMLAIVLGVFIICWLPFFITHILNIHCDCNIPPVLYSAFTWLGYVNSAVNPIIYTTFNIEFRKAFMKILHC

Chain of 5-hydroxytryptamine receptor 2A (P14842 whole entry): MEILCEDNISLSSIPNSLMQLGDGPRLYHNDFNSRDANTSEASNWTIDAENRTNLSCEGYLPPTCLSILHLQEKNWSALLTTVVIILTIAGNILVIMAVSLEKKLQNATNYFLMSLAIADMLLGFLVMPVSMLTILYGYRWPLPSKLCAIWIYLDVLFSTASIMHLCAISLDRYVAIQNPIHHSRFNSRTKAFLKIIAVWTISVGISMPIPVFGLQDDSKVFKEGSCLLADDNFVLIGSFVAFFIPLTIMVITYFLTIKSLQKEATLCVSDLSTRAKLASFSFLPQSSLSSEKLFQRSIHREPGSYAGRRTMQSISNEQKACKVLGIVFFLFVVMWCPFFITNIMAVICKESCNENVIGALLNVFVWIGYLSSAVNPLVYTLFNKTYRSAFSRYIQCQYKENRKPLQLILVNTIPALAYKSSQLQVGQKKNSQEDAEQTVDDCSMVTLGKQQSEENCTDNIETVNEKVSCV

Row | Structure (SMILES) | Ki [1] | Ki (D(2) dopamine receptor)
1 | COc1ccccc1N1CCN(CCCOc2ccc3c(C)cc(=O)oc3c2)CC1 | 174 nM | 11.7 nM
2 | COc1cc(=O)oc2cc(OCCCN3CCN(c4ncccn4)CC3)ccc12 | 138 nM | 47.9 nM
3 | Cc1cc(=O)oc2cc(OCCCN3CCN(c4ncccn4)CC3)ccc12 | 2340 nM | 324 nM
4 | COc1ccccc1N1CCN(CCCOc2ccc3c(OC)cc(=O)oc3c2)CC1 | 3090 nM | 17.8 nM
5 | COc1cc(=O)oc2cc(OCCCN3CCN(c4ccccn4)CC3)ccc12 | 537 nM | 129 nM
6 | Cc1cc(=O)oc2cc(OCCCN3CCN(c4ccccn4)CC3)ccc12 | 1070 nM | 81.3 nM
7 | Cc1cc(=O)oc2cc(OCCCN3CCN(c4ccccc4)CC3)ccc12 | 933 nM | 45.7 nM
8 | COc1cc(=O)oc2cc(OCCCN3CCN(c4ccccc4)CC3)ccc12 | 1950 nM | 562 nM
